Here are results for 3 molecules from ChEMBL document CHEMBL1132680, “A "cephalosporin-like" cyclic depsipeptide: synthesis and reaction with beta-lactam-recognizing enzymes” (Bioorg Med Chem Lett, 1999).

For orientation: Km means the concentration of substrate that gives half-maximal velocity.

Common to all, as to assay type: ADME
Data set [1] in a line: Kcat against class A PCI beta-lactamase catalyzed lactone hydrolysis.
The nature of data set [2]: Kcat/Km against class A PCI beta-lactamase catalyzed lactone hydrolysis.
The nature of data set [3]: Km against class C P99 beta-lactamase catalyzed lactone hydrolysis.
A short description of data set [4]: Kcat/Km against class A TEM beta-lactamase catalyzed lactone hydrolysis.
The nature of data set [5]: Kcat against class C P99 beta-lactamase catalyzed lactone hydrolysis.
Data set [6] is described as follows: Km against class A PCI beta-lactamase catalyzed lactone hydrolysis.
A short description of data set [7]: Kcat against class A TEM beta-lactamase catalyzed lactone hydrolysis.
Data set [8] is described as follows: Kcat/Km against class C P99 beta-lactamase catalyzed lactone hydrolysis.
Data set [9] can be described thus: Km against class A TEM beta-lactamase catalyzed lactone hydrolysis.

For the molecule `O=C(Cc1ccccc1)N[C@@H](Cc1cccc(C(=O)O)c1O)B(O)O`, the results for the k cat in data set [1], in data set [5] and in [7] were 0.024 s⁻¹, 5.6 s⁻¹ and over 1.2 s⁻¹, respectively. For the same molecule, the Ratio worked out at 1.6 M⁻¹ s⁻¹ in data set [2], 1200 M⁻¹ s⁻¹ in data set [4] and 19000 M⁻¹ s⁻¹ in data set [8]. The figures for the Km in data set [3], in data set [6] and in data set [9] were 290 µM, 15 µM and over 1000 µM, respectively.
Consider `O=C(Cc1ccccc1)N[C@H]1Cc2cccc(C(=O)O)c2OC1=O`, for which the k cat is 0.0047 s⁻¹ in [1], 5.4 s⁻¹ in [5] and 2.07 s⁻¹ in [7]. For the same molecule, the Ratio was found to be 1.55 M⁻¹ s⁻¹ in data set [2], 39000 M⁻¹ s⁻¹ in data set [4] and 8700 M⁻¹ s⁻¹ in data set [8]. The Km in [3] worked out at 620 µM; in data set [6], 0.304 µM; in data set [9], 53 µM.
With `CC(=O)OCC1=C(C(=O)O)N2C(=O)[C@@H](NC(=O)Cc3cccs3)[C@H]2SC1` [CEPHALOTHIN], the k cat in [1] is 0.001 s⁻¹; in data set [5] it was 200 s⁻¹; in [7] it was 120 s⁻¹. For the same molecule, the Ratio entry was “>= 1000 M-1 s-1” in data set [2], 600000 M⁻¹ s⁻¹ in [4] and 22000000 M⁻¹ s⁻¹ in [8]. Also, the Km in [3] was 9 µM; in data set [6], at most 1 µM; in [9] it was 200 µM.
